From paper PMC9504695, “Insight into the Formation of Cocrystal and Salt of Tenoxicam from the Isomer and Conformation” (Pharmaceutics, 2022)
Read-outs that look alike come from different tables or passages of the source.

Columns and labels:
[1] = cited from earlier work
[2] = pKa of TNX and cocrystal coformers (values from SciFinder); settings: between CCF and TNX (pKa of TNX 4.50)
[3] = clinical dosage forms; cited from earlier work
[4] = low solubility and high permeability; cited from earlier work
[5] = Dissolution measurements (basket method, 37 °C, HPLC); assay type: physicochemical; settings: pH 1.2 and 6.8, 37 °C
Description: Dissolution measurements were investigated by the basket method by using an RC12AD dissolution instrument (Tianjin Tianda Tianfa Technology Co., Ltd., Tianjin, China). According to a previous study, it is necessary that all of the particle sizes of TNX, cocrystals, and salt are at the same level when the same operation is performed on these samples. To do so, the powder samples of TNX, two cocrystals, and one salt were milled and sieved through 100-mesh sieves to minimize the size influence on the results. The temperature and rotation speed were set to 37 °C and 160 r·min^−1. The dissolution mediums were water (pH 7.0), phosphate buffer (pH 6.8), acetate buffer (pH 4.5), and hydrochloric buffer (pH 1.2). Accurately weighed samples (containing 60 mg of TNX) were each added to 900 mL of dissolution mediums. The sampling points were at 5, 10, 15, 20, 30, 45, 60, 90, 120, 180, 240, 360, 480, 600, and 720 min. The concentrations of TNX were quantified on an Agilent 1200 Series HPLC system (Agilent Technologies, Santa Clara, USA) with a Sil-Green C18 HPLC column (4.6 mm × 250 mm, 5μm) and a UV detector at a wavelength of 257 nm. The mobile phase was methanol–0.04% formic acid aqueous solution (61:39). The flow rate and column temperature were set to 1 mL·min^−1 and 25 °C.

Row | SMILES | ΔpKa Value [2] | pKa Value ([1]; pKa of the CCF, ref SciFinder) | also measured
1 | O=C(O)c1cc([N+](=O)[O-])cc([N+](=O)[O-])c1 [3,5-Dinitrobenzoic acid (DNB), 3,5-Dinitrobenzoic acid] | 1.73 | 2.77 | –
2 | O=C(O)c1ccc(O)cc1 [4-Hydroxybenzoic acid (HBA), 4-Hydroxybenzoic acid] | 0.07 | – | –
3 | O=C(O)C(=O)O [Oxalic acid (OLA), Oxalic acid] | – | 1.38 | –
4 | Oc1ccccc1O [Pyrocatechol (PRC), Pyrocatechol] | 5.00 | 9.50 | –
5 | Oc1cccc(O)c1O [Pyrogallol (PRG), Pyrogallol] | 4.78 | 9.28 | –
6 | O=C1NS(=O)(=O)c2ccccc21 [Saccharin (SCR), Saccharin] | – | 1.60 | –
7 | O=C(O)CCC(=O)O [Succinic acid (SNA), Succinic acid] | 0.26 | – | –
8 | CN1C(C(=O)Nc2ccccn2)=C(O)c2sccc2S1(=O)=O [TNX, Tenoxicam] | – | – | pKa ([1]; TNX, source not given): 4.50; half-life period [3]: 70~90 h; BCS class [4]: class II
9 | CN1C(C(=O)Nc2ccccn2)=C(O)c2sccc2S1(=O)=O.Nc1ccc(C(=O)O)c(O)c1 [TNX-PAS] | – | – | solubility in dissolution measurements, comparison [5]: slightly higher than that of TNX
10 | Nc1ccc(C(=O)O)c(O)c1 [p-Aminosalicylic acid (PAS), p-Aminosalicylic acid] | 0.92 | – | pKa Value [1]: 3.58

Continued, in another order:

Row | ΔpKa Value [2] | SMILES | pKa Value ([1]; pKa of the CCF, ref SciFinder) | also measured
11 | 3.20 | O=C(O)c1c(O)cccc1O [2,6-Dihydroxybenzoic acid (DHB), 2,6-Dihydroxybenzoic acid] | 1.30 | –
12 | 0.76 | O=C(O)CO [Glycolic acid (GLA), Glycolic acid] | 3.74 | –
13 | 2.11 | O=C(O)/C=C\C(=O)O [Maleic acid (MLA), Maleic acid] | 2.39 | –
14 | 4.95 | Oc1cccc(O)c1 [Resorcinol (RSC), Resorcinol] | 9.45 | –
15 | 2.12 | O=C(O)CCC(=O)C(=O)O [α-Ketoglutaric acid (KLA), α-Ketoglutaric acid] | – | –
